Data on nine molecules can be found in patent US11839212B2, “Synergistic pesticidal compositions and methods for delivery of insecticidal active ingredients” (0903608 B.C. Ltd., priority 2018, dated 2023).

Holding throughout (experiment): Synergistic Growth Inhibition Assay (MIC and FIC index, 96-well, resazurin)
Common to all, as to type: cell-based
Background: Resazurin is reduced to fluorescent resorufin, in cell work by metabolically active cells.

The subject of test [1] is Botrytis cinerea. The conditions noted are these: for MIC: Botrytis cinerea, 48 h. How it is done:
(§1) In some embodiments, the synergistic action between the pesticidal active ingredient, and the at least one C6-C10 (or alternatively C11 or C12) saturated or unsaturated aliphatic acid components of the pesticidal compositions according to embodiments of the present disclosure was tested using a Synergistic Growth Inhibition Assay, which is derived from and related to a checkerboard assay as is known in the art for testing of combinations of antimicrobial agents. In the Synergistic Growth Inhibition Assay used in accordance with some embodiments of the present disclosure, multiple dilutions of combinations of pesticidal active ingredient and at least one C6-C10 saturated or unsaturated aliphatic acid agents are tested in individual cells for inhibitory activity against a target pest or pathogenic organism. In one such embodiment, the combinations of pesticidal active ingredient and C6-C10 (or alternatively C11 or C12) saturated or unsaturated aliphatic acid agents may preferably be tested in decreasing concentrations. In a further such embodiment, the combinations of pesticidal active ingredient and C6-C10 (or alternatively C11 or C12) saturated or unsaturated aliphatic acid agents may be tested in increasing concentrations. These multiple combinations of the pesticidal active ingredient and at least one C6-C10 (or alternatively C11 or C12) saturated or unsaturated aliphatic acid agents may be prepared in 96-well microtiter plates. In one such embodiment, the Synergistic Growth Inhibition Assay then comprises rows which each contain progressively decreasing concentrations of the pesticidal active ingredient and one or more C6-C10 (or alternatively C11 or C12) saturated or unsaturated aliphatic acid agents to test for the MIC of the agents in combination at which growth of the target pest or pathogen is inhibited. Thus, each well of the microtiter plate is a unique combination of the two agents, at which inhibitory efficacy of the combination against the target pest or pathogen can be determined.
(§2) In one embodiment according to the present disclosure, for each row of microtiter cells in the Synergistic Growth Inhibition Assay, the FIC index is calculated from the lowest concentration of the pesticidal active ingredient and one or more C6-C10 saturated or unsaturated aliphatic acid agents necessary to inhibit growth of a target pest or pathogen. The FIC of each component is derived by dividing the concentration of the agent present in that well of the microtiter plate by the minimal inhibitory concentration (MIC) needed of that agent alone to inhibit growth of the target pest or pathogen. The FIC index is then the sum of these values for both agents in that well of the microtiter plate. […] Fractional inhibitory concentration indices may then used as measure of synergy. […] When the FIC index is equal to 1, the combination is additive.
(§3) Then, serial dilutions of these initial compositions in successive wells in the row of the microtiter plate were used to assay the pesticidal composition under the same conditions to determine the concentration of the composition combining the two agents corresponding to the microtiter well in which growth inhibition of the target pest or organism ceases.
Similarly to as described above, Resazurin was used as an indicator of growth or inhibition of growth of Botrytis cinerea in the exemplary Synergistic Growth Inhibition Assay. In addition to the color change of the resazurin, an optical or visual examination of the microtiter well may also be made to additionally determine the presence of growth or inhibition of growth of the Botrytis cinerea.

The subject of test [2] is Sclerotinia sclerotiorum. The conditions noted are these: for MIC: Sclerotinia sclerotiorum. How it is done: as §1, §2, §3
Similarly to as described above, Resazurin was used as an indicator of growth or inhibition of growth of Sclerotinia sclerotiorum in the exemplary Synergistic Growth Inhibition Assay. In addition to the color change of the resazurin, an optical or visual examination of the microtiter well may also be made to additionally determine the presence of growth or inhibition of growth of the Sclerotinia sclerotiorum.

Test [3] deals with Fusarium oxysporum. As to conditions: for MIC: Fusarium oxysporum. How it is done:
as §1, §2, §3
Resazurin dye (also known as Alamar blue dye) was used as an indicator to determine the presence of growth or inhibition of growth of Fusarium oxysporum in the wells of the 96 well microtiter plates used in the exemplary Synergistic Growth Inhibition Assay. In addition to the color change of the resazurin dye in the presence of growth of the Fusarium oxysporum, an optical or visual examination of the microtiter well may also be made to additionally determine the presence of growth or inhibition of growth of the Fusarium oxysporum.

[4] abbreviates: Table 20B, Compound A alone, incubation 7 days, read-out: MIC (A).
Setting [5] is: Table 23, Compound A alone, incubation 48 hours, read-out: MIC (A).
Setting [6] is: Table 19, Compound A alone, incubation 7 days, read-out: MIC (A).
The mark [7] stands for this setting: 48 h, Table 15B, Compound A alone, incubation 48 hours, read-out: MIC (A).

Read-outs that look alike come from different tables or passages of the source.

For orientation: MIC means the lowest concentration found to suppress growth.

Consider `N#Cc1c(Cl)c(Cl)c(Cl)c(C#N)c1Cl` [Chlorothalonil, reference compound], for which the MIC in test [1] (Table 46, Compound A alone, 48 hours incubation, read-out: MIC (A)) worked out at 0.0176 µg/mL; in test [2] (setting [4]), 0.0312 µg/mL; in test [2] (Table 36, Compound A alone, 7 days incubation, read-out: MIC (A)) it was 0.0312 µg/mL; in test [3] (48 h, Table 12, Compound A alone, incubation 48 hours, read-out: MIC (A)), 0.125 µg/mL.
Regarding `CC(C)(C)C(O)(CCc1ccc(Cl)cc1)Cn1cncn1` (stereo not shown) [Tebuconazole, reference compound], the MIC worked out at 112 µg/mL in test [1] (setting [5]); 112 µg/mL in test [1] (Table 25, Compound A alone, 48 hours incubation, read-out: MIC (A)); 112 µg/mL in test [1] (Table 50, Compound A alone, 48 hours incubation, read-out: MIC (A)); 225 µg/mL in test [2] (setting [6]); 56.2 µg/mL in test [2] (setting [4]); 112 µg/mL in test [2] (Table 41, Compound A alone, 7 days incubation, read-out: MIC (A)). The MIC came out at 112 µg/mL in test [2] (Table 42, Compound A alone, incubation 7 days, read-out: MIC (A)); 255 µg/mL in test [3] (48 h, Table 15A, Compound A alone, incubation 48 hours, read-out: MIC (A)); 225 µg/mL in test [3] (setting [7]); 225 µg/mL in test [3] (48 h, Table 32, Compound A alone, 48 hours incubation, read-out: MIC (A)).
`CO/C=C(/C(=O)OC)c1ccccc1Oc1cc(Oc2ccccc2C#N)ncn1` [Azoxystrobin, reference compound]: the “MIC (A)” value in test [1] (Table 23, Compound A alone, incubation 48 hours) came to 75 µg/mL; in test [1] (Table 45, Compound A alone, 48 hours incubation), 75 µg/mL; in test [2] (Table 17, Compound A alone, incubation 7 days), 150 µg/mL; in test [2] (Table 20B, Compound A alone, incubation 7 days) it was 75 µg/mL; in test [2] (Table 35, Compound A alone, 7 days incubation) it was 150 µg/mL; in test [3] (Table 11, Compound A alone, incubation 48 hours), 75 µg/mL. The “MIC (A)” value in test [3] (Table 15B, Compound A alone, incubation 48 hours) amounted to 150 µg/mL; in test [3] (Table 28, Compound A alone, 48 hours incubation), 150 µg/mL.
`CCCCCCCC(O)CC(=O)O` (stereo not shown) [3-Hydroxydecanoic acid, 3-hydroxydecanoic acid]: the MIC in test [1] (Table 51, Compound B alone, 48 hours incubation, read-out: MIC (B)) was 62.5 µg/mL; in test [1] (Table 56, Compound B alone, 48 hours incubation, read-out: MIC (B)), 125 µg/mL; in test [1] (Table 59, Compound B alone, 48 hours incubation, read-out: MIC (B)), 125 µg/mL; in test [2] (Table 16, Compound B alone, incubation 7 days, read-out: MIC (B)), 125 µg/mL; in test [2] (Table 20B, Compound B alone, incubation 7 days, read-out: MIC (B)) it was 62.5 µg/mL; in test [3] (48 h, Table 10, Compound B alone, incubation 48 hours, read-out: MIC (B)), 250 µg/mL. Moreover, the MIC in test [3] (48 h, Table 12, Compound B alone, incubation 48 hours, read-out: MIC (B)) is 250 µg/mL; in test [3] (48 h, Table 13, Compound B alone, incubation 48 hours, read-out: MIC (B)) it was 250 µg/mL; in test [3] (48 h, Table 15B, Compound B alone, incubation 48 hours, read-out: MIC (B)) it was 250 µg/mL.
`Fc1ccc([C@]2(Cn3cncn3)O[C@H]2c2ccccc2Cl)cc1` (racemic) [Epoxiconazole, reference compound]: the MIC stood at 30 µg/mL in test [1] (setting [5]); 30 µg/mL in test [1] (Table 49, Compound A alone, 48 hours incubation, read-out: MIC (A)); 30 µg/mL in test [2] (setting [6]); 30 µg/mL in test [2] (setting [4]); 30 µg/mL in test [2] (Table 40, Compound A alone, 7 days incubation, read-out: MIC (A)); 30 µg/mL in test [3] (48 h, Table 31, Compound A alone, 48 hours incubation, read-out: MIC (A)).
Take `CC1COC(Cn2cncn2)(c2ccc(Oc3ccc(Cl)cc3)cc2Cl)O1` (stereo not shown) [Difenoconazole, reference compound]: the MIC in test [1] (Table 24, Compound A alone, 48 hours incubation, read-out: MIC (A)) stood at 51 µg/mL; in test [2] (Table 20A, Compound A alone, incubation 7 days, read-out: MIC (A)), 12.8 µg/mL; in test [2] (setting [4]), 25.5 µg/mL; in test [2] (Table 38, Compound A alone, 7 days incubation, read-out: MIC (A)), 25.5 µg/mL; in test [3] (48 h, Table 14, Compound A alone, incubation 48 hours, read-out: MIC (A)), 51 µg/mL; in test [3] (setting [7]), 51 µg/mL. Moreover, in test [3] (48 h, Table 30, Compound A alone, 48 hours incubation, read-out: MIC (A)), the MIC came to 51 µg/mL.
Turning to `N#Cc1c[nH]cc1-c1cccc2c1OC(F)(F)O2` [Fludioxonil, fludioxonil, reference compound], the MIC in test [2] (read-out: MIC (A), Table 37, Compound A alone, 7 days incubation) was found to be 0.164 µg/mL; in test [3] (24 h, read-out: MIC (A), Table 2, Compound A alone, 24 hour incubation), 0.481 µg/mL; in test [3] (24 h, read-out: MIC (A), Table 3, Compound A alone, 24 hour incubation), 0.241 µg/mL; in test [3] (24 h, read-out: MIC(A), Table 7, Compound A alone, 24 hour incubation), 0.481 µg/mL; in test [3] (48 h, read-out: MIC (A), Table 13, Compound A alone, incubation 48 hours) it was 21 µg/mL; in test [3] (48 h, read-out: MIC (A), Table 15B, Compound A alone, incubation 48 hours) it was 21 µg/mL. The MIC in test [3] (48 h, read-out: MIC (A), Table 29, Compound A alone, 48 hours incubation) amounted to 21 µg/mL; in test [3] (read-out: MIC (A), Table 8, Compound A alone), 0.481 µg/mL.
As for `COC(=O)N(OC)c1ccccc1COc1ccn(-c2ccc(Cl)cc2)n1` [Pyraclostrobin, pyraclostrobin, reference compound], the MIC worked out at 1.9 µg/mL in test [1] (Table 21, Compound A alone, incubation 48 hours, read-out: MIC (A)); 3.75 µg/mL in test [1] (setting [5]); 1.88 µg/mL in test [1] (Table 43, Compound A alone, 48 hours incubation, read-out: MIC (A)); 1.88 µg/mL in test [1] (Table 44, Compound A alone, 48 hours incubation, read-out: MIC (A)); 7.5 µg/mL in test [2] (Table 16, Compound A alone, incubation 7 days, read-out: MIC (A)); 3.75 µg/mL in test [2] (setting [4]). Besides, the MIC in test [2] (Table 33, Compound A alone, 7 days incubation, read-out: MIC (A)) stood at 7.5 µg/mL; in test [2] (Table 34, Compound A alone, 7 days incubation, read-out: MIC (A)) it was 3.75 µg/mL; in test [3] (24 h, Table 1, Compound A alone, 24 hour incubation, read-out: MIC(A)), 15.4 µg/mL; in test [3] (48 h, Table 10, Compound A alone, incubation 48 hours, read-out: MIC (A)), 15 µg/mL; in test [3] (setting [7]), 15 µg/mL; in test [3] (48 h, Table 27, Compound A alone, 48 hours incubation, read-out: MIC (A)) it was 15 µg/mL.
As to `Cc1cc(C2CC2)nc(Nc2ccccc2)n1` [Cyprodinil, reference compound], the MIC in test [1] (setting [5]) was determined as 4.5 µg/mL; in test [1] (Table 26, Compound A alone, 48 hours incubation, read-out: MIC (A)), 4.5 µg/mL; in test [1] (Table 47, Compound A alone, 48 hours incubation, read-out: MIC (A)) it was 4.5 µg/mL; in test [2] (setting [4]) it was […]; in test [3] (48 h, Table 13, Compound A alone, incubation 48 hours, read-out: MIC (A)), […]; in test [3] (48 h, Table 29, Compound A alone, 48 hours incubation, read-out: MIC (A)) it was […].
